Data from PubChem BioAssay (NCI).
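Five concentrations, 48 hours, 96-well plates. GI50 marks 50% less growth. TGI: total growth inhibition.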

How the values were obtained:
Assay in all cases: growth of human tumour cells (NCI), 48 h
786-0 renal = test system: 786-0 renal
A498 renal = test system: A498 renal
KM12 colon = test system: KM12 colon
MDA-MB-435 = test system: MDA-MB-435
MOLT-4 leukemia = test system: MOLT-4 leukemia
NCI-H226 lung = test system: NCI-H226 lung
NCI-H460 lung = test system: NCI-H460 lung
OVCAR-3 ovarian = test system: OVCAR-3 ovarian
RXF 393 renal = test system: RXF 393 renal
UACC-257 melanoma = test system: UACC-257 melanoma

Compound	GI50 (786-0 renal) [µM]	TGI (786-0 renal) [µM]	GI50 (A498 renal) [µM]	TGI (A498 renal) [µM]	TGI (KM12 colon) [µM]	GI50 (MDA-MB-435) [µM]	TGI (MDA-MB-435) [µM]	TGI (MOLT-4 leukemia) [µM]	GI50 (NCI-H226 lung) [µM]	TGI (NCI-H226 lung) [µM]	GI50 (NCI-H460 lung) [µM]	TGI (NCI-H460 lung) [µM]	GI50 (OVCAR-3 ovarian) [µM]	TGI (OVCAR-3 ovarian) [µM]	GI50 (RXF 393 renal) [µM]	TGI (RXF 393 renal) [µM]	GI50 (UACC-257 melanoma) [µM]	TGI (UACC-257 melanoma) [µM]	GI50 (KM12 colon) [µM]	GI50 (MOLT-4 leukemia) [µM]
C[C@@H]1CC[C@@]2(OC1)O[C@H]1C[C@H]3[C@@H]4CC=C5C[C@@H](O[C@@H]6O[C@H](CO)[C@@H](O[C@@H]7O[C@@H](CO)[C@H](O)[C@H]7O)[C@H](O)[C@H]6O[C@@H]6O[C@@H](C)[C@H](O)[C@@H](O)[C@H]6O)CC[C@]5(C)[C@H]4CC[C@]3(C)[C@H]1[C@@H]2C	1.37	2.68	1.28	2.55	2.15	1.29	2.58	2.26	1.33	3.07	0.928	2.29	1.75	3.12	0.388	1.58	1.31	2.64		
C[Se]C(=O)CC1=C2C=C(F)C=CC2/C(=C\c2ccc(S(C)=O)cc2)C1C (configuration not stated)	0.207	1.71	0.0422	0.192	3.25	< 0.0117	0.362	> 100	< 0.0164	0.317	< 0.01	0.526	0.0336	0.26	0.0289	0.8	0.0875	2.42	0.0853	0.392
Oc1c(CN2CCCC2)cc(COCc2ccccc2)c2cccnc12	2.22	8.52	3.82	15	18.2	4.43	26.3	11.4	2.69	12	0.774	11.8	2.13	13.3	2.11	8.29	2.84	8.25	2.14	2.96
O=C1/C(=C/c2cccs2)CCC/C1=C\c1cccs1	49.8	> 100	31.4	> 100	> 100	> 100	> 100	> 100	49.1	> 100	> 76.4	> 100	23.8	> 100	26.4	> 100	79.1	> 100	> 100	> 100
C[C@H]1[C@@H](OCC(CO[C@H]2O[C@@H]3O[C@@]4(C)CC[C@H]5[C@H](C)CC[C@@H]([C@H]2C)[C@@]35OO4)=NOCC(=O)O)OC2O[C@@]3(C)CC[C@H]4[C@H](C)CC[C@@H]1[C@@]24OO3 (some centres not stated)	0.112	23	1.76	19.6	13	0.02	5.25	8.61	0.0375	20.1	0.0537	19.5	< 0.0188		0.0821	15.8	0.0266	16.4	< 0.0166	< 0.01
Cn1c(=O)c2[nH]c(COc3ccc(C(C)(C)C)cc3)nc2n(C)c1=O	19.5	> 100	4.94	60.1	44	4.09	35.4	31.2	25.6	> 100	15.4	> 100	12.3	33.6	57	> 100	6.03	31.6	15.9	3.94
CC#CC(=O)N1CCC[C@H]1c1nc(-c2ccc(C(=O)Nc3ccccn3)cc2)c2c(N)nccn12	> 100	> 100	26.4	> 81.9	> 100	44.1	> 100	> 100	> 65.4	> 100	89.5	> 100	37.2	> 100	61.7	> 100	50.1	> 100	> 72.2	44.3
COc1ccccc1-n1c(SCc2cc(OC)c(OC)c(OC)c2)nc2ccc(Cl)cc2c1=O	4.46	> 100	1.76	48.2	> 100	0.366	25.8	> 100	13.3	> 100	3.34	> 100	2.21	15.9	3.78	> 100	5.7	> 100	1.46	3.05
NC(CSC(c1ccccc1)(c1ccccc1)c1ccc2ccccc2c1)C(=O)O (configuration not stated)	0.0763	1.19	0.0529	3.79	3.21	0.018	0.0363	> 33.8	9.27	24.5	0.0485	12.1	0.0287	0.0992	0.0572	21.5	9.67	34.3	0.0804	0.29
COc1ccc([C@H]2O[C@@H](CO)C[C@]2(O)c2ccc(OC)cc2)cc1	> 100	> 100	> 100	> 100	> 100	> 100	> 100	> 100	> 100	> 100	> 100	> 100	> 100	> 100	28.4	> 100	> 100	> 100	> 100	> 100
